Here are results for ten substances from paper PMC8042122 (Scientific Reports, 2021).

Test [1] relates to F. graminearum CBS185.32 strain. Type of test: cell-based, Fusarium graminearum.
For test [2] the test system is unchanged. Type of test: cell-based, Fusarium graminearum. This is another data set of the same source.
For test [3] the test system is unchanged. In kind it is cell-based, Fusarium graminearum. The source holds these as a separate data set.
Test [4] has as its system F. graminearum strain 8/1. The following applies: cited from earlier work.
The test system of test [5] is bacterial growth. The note with it: cited from earlier work.

“Also recorded” adds a separate entry of the source. Like-named read-outs stand apart in the source and are kept apart here. No end group written: not given here.

With “C(CH3)GNFLKRTC(CH3)IC(CH3)VKK [TC3-CH3-123, TC3 with all Cys capped with CH3 groups]”, the 15-ADON production entry in test [1] (50 µM) was “significantly more”. The DON production result in test [2] (50 µM) is given as “significantly more”.
Consider “C(CH3)GNFLKRTCICVKK (disulfide) [TC3-CH3-1Ox, TC3-CH3-1 oxidized, cyclized through the non-capped Cys]”, for which, in test [3] (50 µM), the “Effect on fungal growth (fungal biomass weight)” value (shortened to “Effect … (fungal biomass weight)”) is “significantly less effect”. For the same substance, in test [1] (50 µM), the 15-ADON production result is reported as “reduction” and the “Reduction of 15-ADON production” value is “about 42%”. The DON production entry in test [2] (50 µM) is “reduction”.
With “C(CH3)GNFLKRTCICVKK [TC3-CH3-1, TC3 with Cys1 capped with a methyl group]”, the “Effect … (fungal biomass weight)” value in test [3] (50 µM) is given as “significantly less effect”. In test [1] (50 µM), the 15-ADON production result is listed as “reduction” and the “Reduction of 15-ADON production” value was “about 33%”. For the same substance, the DON production entry in test [2] (50 µM) was “reduction”.
As for “CGNFLKRTC(CH3)ICVKK (disulfide) [TC3-CH3-2Ox, TC3-CH3-2 oxidized, cyclized through the non-capped Cys]”, the “Effect … (fungal biomass weight)” value in test [3] (50 µM) is given as “significantly less effect”.
Still for that read-out and setting: in the case of “CGNFLKRTC(CH3)ICVKK [TC3-CH3-2, TC3 with Cys9 capped with a methyl group]” it was “significantly less effect”.
Take “CGNFLKRTCIC(CH3)VKK (disulfide) [TC3-CH3-3Ox, TC3-CH3-3 oxidized, cyclized through the non-capped Cys]”: the “Effect … (fungal biomass weight)” value in test [3] (50 µM) is “significantly less effect”.
Same read-out and setting: in the case of “CGNFLKRTCIC(CH3)VKK [TC3-CH3-3, TC3 with Cys11 capped with a methyl group]” it was “significantly less effect”.
In the case of “CGNFLKRTCICVKK (disulfide (positions not given here)) [TC3Ox]”, the “Effect on fungal growth (dry fungal biomass weight)” value in test [3] was “reduced effect”. Also, the 15-ADON production entry in test [1] (25 µM) and in test [1] (50 µM) was “significantly decreased” in each case. Moreover, the DON production result in test [2] (25 µM) and in test [2] (50 µM) was “significantly decreased” throughout.
As to “CGNFLKRTCICVKK [TC3, γ-core of the Ixodes ricinus defensin DefMT3, reduced (linear) form]”, the “Effect on fungal growth (dry fungal biomass weight)” value in test [3] is “significant dose-dependent inhibition”. Also, the “Reduction of fungal growth (fold)” value in test [3] (50 µM) was found to be 1.8 times. The 15-ADON production entry in test [1] (12.5 µM) is recorded as “non-significant reduction”; in test [1] (25 µM), “trace amounts”; in test [1] (50 µM), “trace amounts; also recorded: abrogated”. Further, the figures for the DON production result in test [2] (12.5 µM), in test [2] (25 µM) and in test [2] (50 µM) were “non-significant reduction”, “trace amounts” and “trace amounts; also recorded: abrogated”, respectively. For the same substance, in test [4], the Effect on germination result is “decrease germination”. Moreover, in test [5], the “Effect on bacterial growth” value is “little or no effect”.
As to “CGNFLKRTCICVKT [TC3-K14T, TC3 with Lys 14 substituted by Thr]”, the “Effect on fungal growth (dry fungal biomass weight)” value in test [3] is “no effect”.
